BigSolDB 2.1

O=C(O)c1cccc(C(=O)O)c1
Details	solubility (mole fraction)
in isopropanol, 278.55 K	0.00218
in isopropanol, 279.87 K	0.00226
in isopropanol, 283.25 K	0.00255
in isopropanol, 288.15 K	0.00291
in isopropanol, 293.15 K	0.00325
in isopropanol, 298.15 K	0.00396
in isopropanol, 303.05 K	0.00459
in isopropanol, 308.25 K	0.00535
in isopropanol, 313.15 K	0.00607
in isopropanol, 318.25 K	0.00675
in methanol, 278.15 K	0.00253
in methanol, 283.25 K	0.00276
in methanol, 288.05 K	0.00314
in methanol, 293.25 K	0.00346
in methanol, 298.75 K	0.00379
in methanol, 302.65 K	0.00411
in methanol, 307.95 K	0.00456
in n-butanol, 278.06 K	0.00187
in n-butanol, 283.11 K	0.00216
in n-butanol, 288.27 K	0.00234
in n-butanol, 293.3 K	0.00265
in n-butanol, 298.06 K	0.00315
in n-butanol, 303.66 K	0.00366
in n-butanol, 308.36 K	0.00386
in n-butanol, 312.66 K	0.00474
in n-butanol, 317.94 K	0.0052
in n-hexanol, 298.48 K	0.00244
in n-hexanol, 302.97 K	0.0032
in n-hexanol, 308.15 K	0.00362
in n-hexanol, 312.7 K	0.00424
in n-hexanol, 317.67 K	0.00477
in n-hexanol, 320.84 K	0.00544
in n-pentanol, 303.05 K	0.00408
in n-pentanol, 308.05 K	0.00532
in n-pentanol, 313.15 K	0.00594
in n-pentanol, 318.15 K	0.00651
in n-pentanol, 323.05 K	0.0074
in n-propanol, 278.15 K	0.00169
in n-propanol, 280.84 K	0.0019
in n-propanol, 283.34 K	0.0022
in n-propanol, 288.17 K	0.00249
in n-propanol, 293.15 K	0.00268
in n-propanol, 298.35 K	0.0032
in n-propanol, 304.05 K	0.00377
in n-propanol, 308.25 K	0.00425
in n-propanol, 313.15 K	0.00473
in n-propanol, 317.55 K	0.00528
in sec-butanol, 283.05 K	0.00145
in sec-butanol, 288.05 K	0.00172
in sec-butanol, 293.15 K	0.00209
in sec-butanol, 298.25 K	0.00235
in sec-butanol, 303.45 K	0.00263
in sec-butanol, 308.25 K	0.00311
in sec-butanol, 313.25 K	0.00346
in sec-butanol, 318.15 K	0.00391
